The text below walks through data of PubChem BioAssay AID220 (DTP/NCI, 2004).

Values joined by “and” are separate entries in the source; they are usually repeats but may differ in a detail not shown here. Equal values may be shown once. Inconclusive results are not listed.

The experiment deals with CD8F1 mice, subcutaneous mammary adenocarcinoma, T/C%. Briefly: NCI In Vivo Anticancer Drug Screen. Data for tumor model Mammary Adenocarcinoma CD8F1 (subcutaneous) in CD8F1. The conditions noted are these: higher = larger tumour. The essentials: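 Mice carrying transplanted tumors received test compound, and survival or tumor size was recorded. Each value is the treated-group measurement divided by the corresponding measurement in vehicle-dosed controls.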

[1] abbreviates: endpoint: median tumor weight (est.), dose: 50.0 mg/kg/injection, schedule: Q07DX005 (ip), vehicle: Klucel (hydroxypropylcellulose) (HPC).
The mark [2] stands for this setting: endpoint: median tumor weight (est.), dose: 100.0 mg/kg/injection, schedule: Q07DX005 (ip), vehicle: Klucel (hydroxypropylcellulose) (HPC).
Setting [3] is: endpoint: median tumor weight (est.), dose: 200.0 mg/kg/injection, schedule: Q07DX005 (ip), vehicle: Klucel (hydroxypropylcellulose) (HPC).

Take `C=C1C(=O)OCC2C(C(=O)O)=CC3C(C)C(C)=CC123` (centres undefined): the T/C runs as follows: (endpoint: median tumor weight (est.), dose: 10.0 mg/kg/injection, schedule: Q07DX005 (ip), vehicle: Klucel (hydroxypropylcellulose) (HPC)) 101 % of control; (endpoint: median tumor weight (est.), dose: 20.0 mg/kg/injection, schedule: Q07DX005 (ip), vehicle: Klucel (hydroxypropylcellulose) (HPC)) 95 % of control and 105 % of control; (endpoint: median tumor weight (est.), dose: 40.0 mg/kg/injection, schedule: Q07DX005 (ip), vehicle: Klucel (hydroxypropylcellulose) (HPC)) 100 % of control and 114 % of control; (endpoint: median tumor weight (est.), dose: 80.0 mg/kg/injection, schedule: Q07DX005 (ip), vehicle: Klucel (hydroxypropylcellulose) (HPC)) 75 % of control and 85 % of control; (endpoint: median tumor weight (est.), dose: 160.0 mg/kg/injection, schedule: Q07DX005 (ip), vehicle: Klucel (hydroxypropylcellulose) (HPC)) 101 % of control.

As for `CC1=CC2c3cccc4[nH]cc(c34)CC2N(C)C1` (centres undefined), the T/C (endpoint: median tumor weight change, dose: 25.0 mg/kg/injection, schedule: Q01DX001 (ip), vehicle: suspension in saline) was 115 % of control.

Consider `C[C@]12CCC(=O)C=C1CC[C@@H]1[C@@H]2[C@@H](O)C[C@@]2(C)[C@H]1CC[C@]2(O)C(=O)CO`, for which the T/C by setting is: under setting [1], 76 % of control; under setting [2], 95 % of control; under setting [3], 60 % of control; (endpoint: median tumor weight (est.), dose: 400.0 mg/kg/injection, schedule: Q07DX005 (ip), vehicle: Klucel (hydroxypropylcellulose) (HPC)) 29 % of control; (endpoint: median tumor weight (est.), dose: 800.0 mg/kg/injection, schedule: Q07DX005 (ip), vehicle: Klucel (hydroxypropylcellulose) (HPC)) 21 % of control; (endpoint: median tumor weight change, dose: 100.0 mg/kg/injection, schedule: Q01DX001 (ip), vehicle: Klucel (hydroxypropylcellulose) (HPC)) 101 % of control. For the same compound, the T/C was 99 % of control (endpoint: median tumor weight change, dose: 200.0 mg/kg/injection, schedule: Q01DX001 (ip), vehicle: Klucel (hydroxypropylcellulose) (HPC)); 110 % of control (endpoint: median tumor weight change, dose: 400.0 mg/kg/injection, schedule: Q01DX001 (ip), vehicle: Klucel (hydroxypropylcellulose) (HPC)); 57 % of control (endpoint: median tumor weight change, dose: 800.0 mg/kg/injection, schedule: Q01DX001 (ip), vehicle: Klucel (hydroxypropylcellulose) (HPC)).

On to `CC(/C=C/c1ccccc1)=Nc1ccccc1`, for which the T/C (endpoint: median tumor weight change, dose: 125.0 mg/kg/injection, schedule: Q01DX001 (ip), vehicle: saline with Tween-80) was 107 % of control; the T/C (endpoint: median tumor weight change, dose: 250.0 mg/kg/injection, schedule: Q01DX001 (ip), vehicle: saline with Tween-80) is 97 % of control; the T/C (endpoint: median tumor weight change, dose: 500.0 mg/kg/injection, schedule: Q01DX001 (ip), vehicle: saline with Tween-80) is 99 % of control.

Turning to `CN(C)c1nc(N(C)C)nc(N(C)C)n1`, the T/C by setting is: (endpoint: mean tumor weight, dose: 75.0 mg/kg/injection, schedule: Q01DX009 (ip), vehicle: saline) 64 % of control; (endpoint: mean tumor weight, dose: 150.0 mg/kg/injection, schedule: Q01DX009 (ip), vehicle: saline) 94 % of control; (endpoint: mean tumor weight, dose: 250.0 mg/kg/injection, schedule: Q07DX006 (ip), vehicle: saline) 108 % of control; (endpoint: mean tumor weight, dose: 300.0 mg/kg/injection, schedule: Q01DX009 (ip), vehicle: saline) 8 % of control; (endpoint: mean tumor weight, dose: 300.0 mg/kg/injection, schedule: Q07DX006 (ip), vehicle: saline) 113 % of control; (endpoint: median tumor weight (est.), dose: 12.5 mg/kg/injection, schedule: Q07DX006 (ip), vehicle: saline with Tween-80) 100 % of control. In addition, the T/C was 171 % of control (endpoint: median tumor weight (est.), dose: 16.0 mg/kg/injection, schedule: Q07DX005 (ip), vehicle: saline with Tween-80); 80 % of control (endpoint: median tumor weight (est.), dose: 25.0 mg/kg/injection, schedule: Q07DX005 (ip), vehicle: saline with Tween-80); 54 % of control (endpoint: median tumor weight (est.), dose: 25.0 mg/kg/injection, schedule: Q07DX006 (ip), vehicle: saline with Tween-80); 31 % of control (endpoint: median tumor weight (est.), dose: 32.0 mg/kg/injection, schedule: Q07DX005 (ip), vehicle: acid diluted with saline); 179 % of control (endpoint: median tumor weight (est.), dose: 32.0 mg/kg/injection, schedule: Q07DX005 (ip), vehicle: saline with Tween-80); 73 % of control (endpoint: median tumor weight (est.), dose: 50.0 mg/kg/injection, schedule: Q07DX005 (ip), vehicle: saline with Tween-80). Further, the T/C reads like this: (endpoint: median tumor weight (est.), dose: 50.0 mg/kg/injection, schedule: Q07DX006 (ip), vehicle: saline with Tween-80) 50 % of control; (endpoint: median tumor weight (est.), dose: 64.0 mg/kg/injection, schedule: Q07DX005 (ip), vehicle: acid diluted with saline) 39 % of control; (endpoint: median tumor weight (est.), dose: 64.0 mg/kg/injection, schedule: Q07DX005 (ip), vehicle: saline with Tween-80) 212 % of control and 76 % of control; (endpoint: median tumor weight (est.), dose: 100.0 mg/kg/injection, schedule: Q07DX005 (ip), vehicle: saline with Tween-80) 62 % of control; (endpoint: median tumor weight (est.), dose: 100.0 mg/kg/injection, schedule: Q07DX006 (ip), vehicle: saline with Tween-80) 78 % of control; (endpoint: median tumor weight (est.), dose: 128.0 mg/kg/injection, schedule: Q07DX005 (ip), vehicle: acid diluted with saline) 53 % of control. Moreover, the T/C is, setting by setting: (endpoint: median tumor weight (est.), dose: 200.0 mg/kg/injection, schedule: Q07DX005 (ip), vehicle: saline with Tween-80) 44 % of control; (endpoint: median tumor weight (est.), dose: 200.0 mg/kg/injection, schedule: Q07DX006 (ip), vehicle: saline with Tween-80) 5 % of control; (endpoint: median tumor weight (est.), dose: 256.0 mg/kg/injection, schedule: Q07DX005 (ip), vehicle: acid diluted with saline) 29 % of control; (endpoint: median tumor weight change, dose: 100.0 mg/kg/injection, schedule: Q01DX001 (ip), vehicle: acid diluted with saline) 103 % of control and 104 % of control; (endpoint: median tumor weight change, dose: 200.0 mg/kg/injection, schedule: Q01DX001 (ip), vehicle: acid diluted with saline) 61 % of control; (endpoint: median tumor weight change, dose: 800.0 mg/kg/injection, schedule: Q01DX001 (ip), vehicle: acid diluted with saline) 37 % of control and 51 % of control.

Consider `COc1cc2c(c(OC)c1O)-c1ccc(OC)c(=O)cc1[C@@H](NC(=O)C(F)(F)F)CC2`, for which the T/C is, setting by setting: (endpoint: median tumor weight change, dose: 3.12 mg/kg/injection, schedule: Q01DX001 (ip), vehicle: Klucel (hydroxypropylcellulose) (HPC)) 100 % of control; (endpoint: median tumor weight change, dose: 6.25 mg/kg/injection, schedule: Q01DX001 (ip), vehicle: Klucel (hydroxypropylcellulose) (HPC)) 203 % of control; (endpoint: median tumor weight change, dose: 12.5 mg/kg/injection, schedule: Q01DX001 (ip), vehicle: Klucel (hydroxypropylcellulose) (HPC)) 74 % of control; (endpoint: median tumor weight change, dose: 25.0 mg/kg/injection, schedule: Q01DX001 (ip), vehicle: Klucel (hydroxypropylcellulose) (HPC)) 168 % of control; (endpoint: median tumor weight change, dose: 50.0 mg/kg/injection, schedule: Q01DX001 (ip), vehicle: Klucel (hydroxypropylcellulose) (HPC)) 21 % of control.

Take `CC(=O)C1(O)Cc2c(O)c3c(c(O)c2C(OC2CC(N)C(O)C(C)O2)C1)C(=O)c1ccccc1C3=O` (centres undefined): the T/C by setting is: (endpoint: median tumor weight (est.), dose: 0.1 mg/kg/injection, schedule: Q07DX005 (ip), vehicle: saline) 81 % of control; (endpoint: median tumor weight (est.), dose: 0.2 mg/kg/injection, schedule: Q07DX005 (ip), vehicle: saline) 55 % of control; (endpoint: median tumor weight (est.), dose: 0.4 mg/kg/injection, schedule: Q07DX005 (ip), vehicle: saline) 48 % of control.

Take `CCC1(O)CC2CN(CCc3c([nH]c4ccccc34)C(C(=O)OC)(c3cc4c(cc3OC)N(C)C3C(O)(C(N)=O)C(O)C5(CC)C=CCN6CCC43C65)C2)C1` (centres undefined) (tested in a mixture with another compound): the T/C reads like this: (endpoint: median tumor weight (est.), dose: 0.12 mg/kg/injection, schedule: Q07DX005 (ip), vehicle: saline) 87 % of control; (endpoint: median tumor weight (est.), dose: 0.25 mg/kg/injection, schedule: Q07DX005 (ip), vehicle: saline) 74 % of control; (endpoint: median tumor weight (est.), dose: 0.5 mg/kg/injection, schedule: Q07DX005 (ip), vehicle: saline) 51 % of control; (endpoint: median tumor weight (est.), dose: 1.0 mg/kg/injection, schedule: Q07DX005 (ip), vehicle: saline) 16 % of control.

For `CC[C@]1(O)C[C@H](OC2CC(N(C)C)C(OC3CC(O)C(O)C(C)O3)C(C)O2)c2c(cc3c(c2O)C(=O)c2c(O)ccc(O)c2C3=O)[C@H]1C(=O)OC` (some centres undefined), the T/C was 170 % of control (endpoint: median tumor weight (est.), dose: 0.5 mg/kg/injection, schedule: Q07DX005 (ip), vehicle: Klucel (hydroxypropylcellulose) (HPC)); 204 % of control (endpoint: median tumor weight (est.), dose: 1.0 mg/kg/injection, schedule: Q07DX005 (ip), vehicle: Klucel (hydroxypropylcellulose) (HPC)); 63 % of control (endpoint: median tumor weight (est.), dose: 4.0 mg/kg/injection, schedule: Q07DX005 (ip), vehicle: Klucel (hydroxypropylcellulose) (HPC)).

Take `COc1cc(OC)c(OC)cc1/C=C\c1ccnc2ccccc12`: the T/C is, setting by setting: under setting [1], 86 % of control; under setting [2], 55 % of control; under setting [3], 78 % of control.

On to `CC1=CC2C(O)(CC(CO)=CC3C4C(C)(C)C4(OC(=O)c4ccccc4)C(OC(=O)c4ccccc4)C(C)C32O)C1=O` (centres undefined), for which the T/C was 88 % of control (endpoint: median tumor weight change, dose: 0.63 mg/kg/injection, schedule: Q01DX001 (ip), vehicle: saline with Tween-80); 58 % of control (endpoint: median tumor weight change, dose: 1.25 mg/kg/injection, schedule: Q01DX001 (ip), vehicle: saline with Tween-80); 96 % of control (endpoint: median tumor weight change, dose: 5.0 mg/kg/injection, schedule: Q01DX001 (ip), vehicle: saline with Tween-80).

Turning to `Nc1nc(/C=C(/O)c2ccccc2)c2ncn(C3OC(CO)C(O)C3O)c2n1` (centres undefined), under “endpoint: median tumor weight change, dose: 50.0 mg/kg/injection, schedule: Q01DX001 (ip), vehicle: distilled water + Tween-80”, the T/C is 91 % of control.
